Laboratory results as given in patent US20260285850A1, “SUBSTITUTED OXAZOLIDINONES AND IMIDAZOLINONES AS HERBICIDES” (FMC CORPORATION, priority 2023, published 2026).

Columns and labels:
Assay type in all cases: in vivo
[1] = tested on: barnyardgrass (Echinochloa crus-galli); test: Test A preemergence soil spray, visual injury rating 0-100; conditions: 10 days; for Barnyardgrass plant response rating: 16 g ai/ha, 0 to 100 scale
Summary of the method: (§1)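 Visual injury ratings (0, no effect; 100, complete control) were assigned relative to untreated plants 10 days after treatment. Test chemicals, formulated with a surfactant-containing non-phytotoxic solvent, were applied in loam-sand soil either as a directed soil spray before emergence or to emerged plants, and plants were kept in a greenhouse.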

[2] = tested on: blackgrass (Alopecurus myosuroides); test: as above; conditions: 10 days; for Blackgrass plant response rating: 16 g ai/ha, 0 to 100 scale
Summary of the method: as §1

corn (Zea mays) [3] = test: as above; conditions: 10 days; for Corn plant response rating: 16 g ai/ha, 0 to 100 scale
Summary of the method: as §1

[4] = tested on: green foxtail (Setaria viridis); test: as above; conditions: 10 days; for Foxtail, Green plant response rating: 16 g ai/ha, 0 to 100 scale
Summary of the method: as §1

kochia (Bassia scoparia) [5] = test: as above; conditions: 10 days; for Kochia plant response rating: 16 g ai/ha, 0 to 100 scale
Summary of the method: as §1

[6] = tested on: oat, wild (wild oat, Avena fatua); test: as above; conditions: 10 days; for Oat, Wild plant response rating: 16 g ai/ha, 0 to 100 scale
Summary of the method: as §1

[7] = tested on: palmer (palmer amaranth, palmer pigweed, Amaranthus palmeri); test: as above; conditions: 10 days; for Pigweed, Palmer plant response rating: 16 g ai/ha, 0 to 100 scale
Summary of the method: as §1

[8] = tested on: ragweed (common ragweed, Ambrosia artemisiifolia); test: as above; conditions: 10 days; for Ragweed plant response rating: 16 g ai/ha, 0 to 100 scale
Summary of the method: as §1

[9] = tested on: ryegrass, Italian (italian ryegrass, Lolium multiflorum); test: as above; conditions: 10 days; for Ryegrass, Italian plant response rating: 16 g ai/ha, 0 to 100 scale
Summary of the method: as §1

soybean (Glycine max) [10] = test: as above; conditions: 10 days; for Soybean plant response rating: 16 g ai/ha, 0 to 100 scale
Summary of the method: as §1

[11] = tested on: wheat (Triticum aestivum); test: as above; conditions: 10 days; for Wheat plant response rating: 16 g ai/ha, 0 to 100 scale
Summary of the method: as §1

[12] = tested on: barnyardgrass (Echinochloa crus-galli); test: Test A postemergence application, visual injury rating 0-100; conditions: for Barnyardgrass plant response rating (0 to 100 scale): Postemergence, 16 g ai/ha, greenhouse 10 days, 0 no effect, 100 complete control
Summary of the method: as §1

[13] = tested on: blackgrass (Alopecurus myosuroides); test: as above; conditions: for Blackgrass plant response rating (0 to 100 scale): Postemergence, 16 g ai/ha, greenhouse 10 days, 0 no effect, 100 complete control
Summary of the method: as §1

corn (Zea mays) [14] = test: as above; conditions: for Corn plant response rating (0 to 100 scale): Postemergence, 16 g ai/ha, greenhouse 10 days, 0 no effect, 100 complete control
Summary of the method: as §1

[15] = tested on: galium (catchweed bedstraw, Galium aparine); test: as above; conditions: for Galium plant response rating (0 to 100 scale): Postemergence, 16 g ai/ha, greenhouse 10 days, 0 no effect, 100 complete control
Summary of the method: as §1

[16] = tested on: green foxtail (Setaria viridis); test: as above; conditions: for Foxtail, Green plant response rating (0 to 100 scale): Postemergence, 16 g ai/ha, greenhouse 10 days, 0 no effect, 100 complete control
Summary of the method: as §1

[17] = tested on: horseweed (Erigeron canadensis); test: as above; conditions: for Horseweed plant response rating (0 to 100 scale): Postemergence, 16 g ai/ha, greenhouse 10 days, 0 no effect, 100 complete control
Summary of the method: as §1

kochia (Bassia scoparia) [18] = test: as above; conditions: for Kochia plant response rating (0 to 100 scale): Postemergence, 16 g ai/ha, greenhouse 10 days, 0 no effect, 100 complete control
Summary of the method: as §1

[19] = tested on: oat, wild (wild oat, Avena fatua); test: as above; conditions: for Oat, Wild plant response rating (0 to 100 scale): Postemergence, 16 g ai/ha, greenhouse 10 days, 0 no effect, 100 complete control
Summary of the method: as §1

[20] = tested on: palmer (palmer amaranth, palmer pigweed, Amaranthus palmeri); test: as above; conditions: for Pigweed, Palmer plant response rating (0 to 100 scale): Postemergence, 16 g ai/ha, greenhouse 10 days, 0 no effect, 100 complete control
Summary of the method: as §1

[21] = tested on: ragweed (common ragweed, Ambrosia artemisiifolia); test: as above; conditions: for Ragweed plant response rating (0 to 100 scale): Postemergence, 16 g ai/ha, greenhouse 10 days, 0 no effect, 100 complete control
Summary of the method: as §1

[22] = tested on: ryegrass, Italian (italian ryegrass, Lolium multiflorum); test: as above; conditions: for Ryegrass, Italian plant response rating (0 to 100 scale): Postemergence, 16 g ai/ha, greenhouse 10 days, 0 no effect, 100 complete control
Summary of the method: as §1

soybean (Glycine max) [23] = test: as above; conditions: for Soybean plant response rating (0 to 100 scale): Postemergence, 16 g ai/ha, greenhouse 10 days, 0 no effect, 100 complete control
Summary of the method: as §1

[24] = tested on: wheat (Triticum aestivum); test: as above; conditions: for Wheat plant response rating (0 to 100 scale): Postemergence, 16 g ai/ha, greenhouse 10 days, 0 no effect, 100 complete control
Summary of the method: as §1

[25] = tested on: barnyardgrass (Echinochloa crusgalli); test: Test B flooded paddy test, visual plant response rating 0-100; conditions: 250 g ai/ha, Flood, applied to paddy water, evaluated after 13 days
Summary of the method: (§2)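 2-leaf plants; flood 3 cm over soil; compound dosed into paddy water; depth kept constant; greenhouse 13 d; visual scoring vs controls. Dash = no result.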

[26] = tested on: ducksalad (Heteranthera limosa); test: as above; conditions: 250 g ai/ha, Flood, applied to paddy water, evaluated after 13 days
Summary of the method: as §2

rice (Oryza sativa) = test: as above; conditions: 250 g ai/ha, Flood, applied to paddy water, evaluated after 13 days
Summary of the method: as §2

[27] = tested on: sedge, umbrella (small-flower umbrella sedge, Cyperus difformis); test: as above; conditions: 250 g ai/ha, Flood, applied to paddy water, evaluated after 13 days
Summary of the method: as §2

[28] = 62 g ai/ha, 0 = no effect, 100 = complete control
[29] = 62 g ai/ha, postemergence, 10 days, 0 = no effect, 100 = complete control

## CC1(C(=O)NC2C=CC(C(=O)O)C2)CN(c2cc(F)c(F)c(F)c2)C(=O)O1 (centres unmarked) [Compound 123]
[1]
  Barnyardgrass plant response rating: 0
[2]
  Blackgrass plant response rating: 0
Corn (Zea mays) [3]
  Corn plant response rating: 0
[4]
  Foxtail, Green plant response rating: 0
Kochia (Bassia scoparia) [5]
  Kochia plant response rating: 0
[6]
  Oat, Wild plant response rating: 10
[7]
  Pigweed, Palmer plant response rating: 0
[8]
  Ragweed plant response rating: 0
[9]
  Ryegrass, Italian plant response rating: 0
Soybean (Glycine max) [10]
  Soybean plant response rating: 0
[11]
  Wheat plant response rating: 80
[12]
  Barnyardgrass plant response rating (0 to 100 scale): 60
[13]
  Blackgrass plant response rating (0 to 100 scale): 90
Corn (Zea mays) [14]
  Corn plant response rating (0 to 100 scale): 70
[15]
  Galium plant response rating (0 to 100 scale): 30
[16]
  Foxtail, Green plant response rating (0 to 100 scale): 30
[17]
  Horseweed plant response rating (0 to 100 scale): 0
Kochia (Bassia scoparia) [18]
  Kochia plant response rating (0 to 100 scale): 0
[19]
  Oat, Wild plant response rating (0 to 100 scale): 60
[20]
  Pigweed, Palmer plant response rating (0 to 100 scale): 20
[21]
  Ragweed plant response rating (0 to 100 scale): 0
[22]
  Ryegrass, Italian plant response rating (0 to 100 scale): 60
Soybean (Glycine max) [23]
  Soybean plant response rating (0 to 100 scale): 60
[24]
  Wheat plant response rating (0 to 100 scale): 80
[25]
  Plant response rating, Barnyardgrass (0 to 100 scale, 0 is no effect and 100 is complete control): 0
[26]
  Plant response rating, Ducksalad (0 to 100 scale, 0 is no effect and 100 is complete control): 55
Rice (Oryza sativa)
  Plant response rating, Rice (0 to 100 scale, 0 is no effect and 100 is complete control): 10
[27]
  Plant response rating, Sedge, Umbrella (0 to 100 scale, 0 is no effect and 100 is complete control): 0

## CC1(C(=O)NC2C=CC(C(=O)O)C2)CN(c2cc(Cl)c(F)c(Cl)c2)C(=O)O1 (centres unmarked) [Compound 124]
[1]
  Barnyardgrass plant response rating: 0
[1]; [28]
  Barnyardgrass plant response rating (0-100): 40
[2]
  Blackgrass plant response rating: 20
[2]; [28]
  Blackgrass plant response rating (0-100): 30
Corn (Zea mays) [3]
  Corn plant response rating: 0
Corn (Zea mays) [3]; [28]
  Corn plant response rating (0-100): 50
[4]
  Foxtail, Green plant response rating: 0
[4]; [28]
  Foxtail, Green plant response rating (0-100): 80
Kochia (Bassia scoparia) [5]
  Kochia plant response rating: 0
Kochia (Bassia scoparia) [5]; [28]
  Kochia plant response rating (0-100): 10
[6]
  Oat, Wild plant response rating: 0
[6]; [28]
  Oat, Wild plant response rating (0-100): 30
[7]
  Pigweed, Palmer plant response rating: 0
[7]; [28]
  Pigweed, Palmer plant response rating (0-100): 30
[8]
  Ragweed plant response rating: 0
[8]; [28]
  Ragweed plant response rating (0-100): 0
[9]
  Ryegrass, Italian plant response rating: 0
[9]; [28]
  Ryegrass, Italian plant response rating (0-100): 70
Soybean (Glycine max) [10]
  Soybean plant response rating: 0
Soybean (Glycine max) [10]; [28]
  Soybean plant response rating (0-100): 0
[11]
  Wheat plant response rating: 20
[11]; [28]
  Wheat plant response rating (0-100): 90
[12]; [29]
  Barnyardgrass plant response rating (0-100): 90
[12]
  Barnyardgrass plant response rating (0 to 100 scale): 70
[13]; [29]
  Blackgrass plant response rating (0-100): 90
[13]
  Blackgrass plant response rating (0 to 100 scale): 80
Corn (Zea mays) [14]; [29]
  Corn plant response rating (0-100): 100
Corn (Zea mays) [14]
  Corn plant response rating (0 to 100 scale): 60
[15]; [29]
  Galium plant response rating (0-100): 90
[15]
  Galium plant response rating (0 to 100 scale): 70
[16]; [29]
  Foxtail, Green plant response rating (0-100): 80
[16]
  Foxtail, Green plant response rating (0 to 100 scale): 10
[17]; [29]
  Horseweed plant response rating (0-100): 60
[17]
  Horseweed plant response rating (0 to 100 scale): 0
Kochia (Bassia scoparia) [18]; [29]
  Kochia plant response rating (0-100): 90
Kochia (Bassia scoparia) [18]
  Kochia plant response rating (0 to 100 scale): 30
[19]; [29]
  Oat, Wild plant response rating (0-100): 90
[19]
  Oat, Wild plant response rating (0 to 100 scale): 30
[20]; [29]
  Pigweed, Palmer plant response rating (0-100): 70
[20]
  Pigweed, Palmer plant response rating (0 to 100 scale): 50
[21]; [29]
  Ragweed plant response rating (0-100): 20
[21]
  Ragweed plant response rating (0 to 100 scale): 0
[22]; [29]
  Ryegrass, Italian plant response rating (0-100): 90
[22]
  Ryegrass, Italian plant response rating (0 to 100 scale): 30
Soybean (Glycine max) [23]; [29]
  Soybean plant response rating (0-100): 70
Soybean (Glycine max) [23]
  Soybean plant response rating (0 to 100 scale): 40
[24]; [29]
  Wheat plant response rating (0-100): 90
[24]
  Wheat plant response rating (0 to 100 scale): 80
[25]
  Plant response rating, Barnyardgrass (0 to 100 scale, 0 is no effect and 100 is complete control): 10
[26]
  Plant response rating, Ducksalad (0 to 100 scale, 0 is no effect and 100 is complete control): 85
Rice (Oryza sativa)
  Plant response rating, Rice (0 to 100 scale, 0 is no effect and 100 is complete control): 15
[27]
  Plant response rating, Sedge, Umbrella (0 to 100 scale, 0 is no effect and 100 is complete control): 30
